{
  "source": "patent US9192579B2",
  "about": "“Sustained release drug delivery devices, methods of use, and methods of manufacturing thereof” (pSivida US, Inc., priority 2000, dated 2015)",
  "origin": "cited, not measured here",
  "system": "CMV retinitis",
  "settings": "intravitreal injections of 200 to 400 μg once or twice weekly, AIDS patients",
  "data": [
    {"smiles": "Nc1nc(O)c2ncn(COC(CO)CO)c2n1", "note": "[GCV, ganciclovir]", "values": [
      {"measurement": "effect on CMV retinitis", "result": "temporary remission"}
    ]}
  ]
}
